Laboratory results: patent US20110251230A1, “THERAPEUTICS FOR NEUROLOGICAL DISORDERS” (UNIVERSITY OF SHEFFIELD, priority 2008, published 2011)
Counter-ions that a name gives are not always drawn. Like-named read-outs stand apart in the source and are kept apart here.

Key:
[1] = tested on: NSC34 mouse motor neuronal cells; assay: NSC34 oxidative stress assay (serum withdrawal, DCF); details: for Maximal % reduction in Oxidative stress: NSC34, DCF fluorescence, negative = pro-oxidant; for Lowest dose with toxicity: NSC34
Method: (§1) A simple oxidative stress assay was used to determine whether preconditioning with NRF2-ARE inducing drugs could protect against a subsequent oxidative stress insult (serum withdrawal). The NSC34, C6 and 1321N1 cells were plated in 96 well tissue culture plates to achieve 30% confluency. […] Media was then replaced with serum free, phenol free media for 5 hrs. […] Cell survival assay was then performed on the cells as protection is measured as % reduction in DCF signal, therefore data points were excluded where a decrease in cell number was measured.
(§2) Briefly methylthiazolyldiphenyl-tetrazolium bromide (MTT) was added to the cells and a blank well to a final concentration 0.5 mg/ml and incubated at 37° C. for 1-3 hrs depending on the cell line used.

[2] = tested on: 1321N1 (human) astrocytic line; assay: 1321N1 oxidative stress assay (serum withdrawal, DCF); details: for Maximal % reduction in Oxidative stress: 1321N1, DCF fluorescence; for Lowest dose with toxicity: 1321N1; for IC50: 1321N1, 24 h pre-treatment, serum withdrawal, DCF
Method: as §1, §2

[3] = tested on: NRF2-ARE pathway in the CHO 4× ARE-TK cell line; assay: ARE reporter assay in CHO 4×ARE-TK-GFP cell line (GFP induction, EthD1 toxicity); details: for maximal fold induction: read-out: Average fold GFP induction at maximal response
Method: Chinese Hamster Ovary (CHO), NSC34 mouse motor neuronal cells, C6 (rat) and 1321N1 (human) astrocytic lines were routinely maintained in DMEM supplemented with 10% FBS and penicillin/streptomycin. […] These plasmids were transfected into CHO, C6 and 1321N1 cell lines using Lipofectamine 2000 (Invitrogen) and following 10-14 days of selection in 0.5 mg/ml G418 they were expanded and selected for basal eGFP expression using fluorescence activated cell sorting (BD, FACSAria) with two sequential cell sorts for each cell line. These mixed populations of stable transfectants with basal eGFP expression were used in subsequent assays and designated 4×ARE-TK-GFP for the ARE containing line and TK-GFP for the control cell line. […]
Confluent cultures of 4×ARE-TK-GFP CHO or TK-GFP CHO expressing cells in 96 or 384-well tissue-culture plates were treated with drug (0.01-100 µM in triplicate) or vehicle (0.1-1% DMSO) in FCS-free DMEM in triplicate for 24 hours. The media was removed and replaced with the same volume of PBS containing 0.3 μM EthD1. […] Non-linear regression was used to fit a sigmoidal dose-response curve on a semi-Log plot to calculate the EC50 using GraphPad Prism (GraphPad Software). The reporter assay was conducted in a similar fashion in C6 and 1321N1 astrocyte cell lines stably transfected with the 4×ARE-TK-GFP and TK-GFP constructs except that Eth D1 was added directly in the media and read prior to washing the cells once and reading the […] signal. […]
The compounds were applied in triplicate to confluent cells in 96 well plates in serum free medium for 24 hours and the induction of GFP measured in a fluorescence plate reader. […]

[4] = tested on: C6 (rat) astrocytic line; assay: C6 oxidative stress assay (serum withdrawal, DCF); details: for IC50: C6, 24 h pre-treatment, serum withdrawal, DCF; for Maximal % reduction in Oxidative stress: C6, DCF fluorescence; for Lowest dose with toxicity: C6
Method: as §1, §2

[5] = read-out: Average EC50, CHO 4×ARE-TK-GFP, GFP induction, 24 h
[6] = Cricetulus griseus, 24 h, read-out: Average EC50

For 3-alpha-hydroxygedinin, the “Maximal % reduction in Oxidative stress” value [1] was 14%, the “Maximal % reduction in Oxidative stress” value [2] was 25% and the “Average fold GFP induction at maximal response” value (from here on “Average fold GFP induction”) ([3]; CHO 4×ARE-TK-GFP, 24 h) was 3.01 fold. The “Lowest dose with toxicity” value ([3]; CHO ARE reporter assay) was 100 µM, the IC50 [4] was 3.22 µM and the “Maximal % reduction in Oxidative stress” value [4] was 42%.
For 3β hydroxydeoxydesacetoxy-7-oxogedunin, the “Lowest dose with toxicity” value [1] was 3 µM, the “Maximal % reduction in Oxidative stress” value [1] was 0% and the “Lowest dose with toxicity” value [2] was “none”. The IC50 [2] was 3.96 µM, the “Maximal % reduction in Oxidative stress” value [2] was 62% and the “Average fold GFP induction” value ([3]; CHO 4×ARE-TK-GFP, 24 h) was 2.55 fold. For the same compound, the “Lowest dose with toxicity” value ([3]; CHO ARE reporter assay) was 30 µM, the EC50 [3, 5] was 8.71 µM and the “Lowest dose with toxicity” value [4] was “none”. For the same compound, the IC50 [4] was 3.07 µM and the “Maximal % reduction in Oxidative stress” value [4] was 67%.
For `Cc1[nH]c2ccccc2c1CN(C)C` [2 methyl gramine], the “Lowest dose with toxicity” value [1] was 3 µM, the “Maximal % reduction in Oxidative stress” value [1] was −30% and the “Lowest dose with toxicity” value [2] was “none”. For the same compound, the IC50 [2] was 11 µM, the “Maximal % reduction in Oxidative stress” value [2] was 36% and the “Average fold GFP induction” value ([3]; CHO 4×ARE-TK-GFP, 24 h) was 2.27 fold. The “Lowest dose with toxicity” value ([3]; CHO ARE reporter assay) was 100 µM, the EC50 [3, 5] was 3 µM and the “Lowest dose with toxicity” value [4] was “none”. The IC50 [4] was 32 µM and the “Maximal % reduction in Oxidative stress” value [4] was 36%.
With `COc1cc(O)c(C)c(O)c1` [2,6-dihydroxy-4-methoxytoluene] the “Lowest dose with toxicity” value [1] was “none”, the “Lowest dose with toxicity” value [2] was “none” and the “Lowest dose with toxicity” value ([3]; Chinese hamster, 24 h) was 100 µM. The maximal fold induction ([3]; Cricetulus griseus, 24 h) was 3.05 and the “Lowest dose with toxicity” value [4] was 10 µM.
For `COc1cccc(O)c1O` [3 methoxycatechol], the “Lowest dose with toxicity” value [1] was 0.3 µM, the “Lowest dose with toxicity” value [2] was “none” and the “Lowest dose with toxicity” value ([3]; Chinese hamster, 24 h) was 100 µM. For the same compound, the maximal fold induction ([3]; Cricetulus griseus, 24 h) was 3.28 and the “Lowest dose with toxicity” value [4] was 10 µM.
In the case of `Cc1cc(O)c(C)c(O)c1C(=O)O` [3 methylorsellinic acid], the “Lowest dose with toxicity” value [1] is reported as 0.3 µM, the “Lowest dose with toxicity” value [2] is reported as “none” and the “Lowest dose with toxicity” value ([3]; Chinese hamster, 24 h) is reported as 100 µM. For the same compound, the maximal fold induction ([3]; Cricetulus griseus, 24 h) was 2.87 and the “Lowest dose with toxicity” value [4] was “none”.
In the case of `CC(=O)Oc1ccc(O)cc1` [4 acetoxyphenol], the “Lowest dose with toxicity” value [1] is reported as “none”, the “Lowest dose with toxicity” value [2] is reported as “none” and the “Lowest dose with toxicity” value ([3]; Chinese hamster, 24 h) is reported as 100 µM. The maximal fold induction ([3]; Cricetulus griseus, 24 h) was 2.78 and the “Lowest dose with toxicity” value [4] was “none”.
With `O=C(/C=C/c1ccc(O)cc1)c1ccccc1` [4 hydroxychalcone] the “Lowest dose with toxicity” value ([3]; CHO ARE reporter assay) was “None”, the EC50 ([3]; Cricetulus griseus, 24 h, read-out: Average EC50, CHO 4×ARE-TK-GFP, GFP induction, 24 h) was 3.53 µM and the maximal fold induction ([3]; Cricetulus griseus, 24 h) was 1.88.
In the case of `COc1ccc(/C=C/C(=O)c2ccccc2)cc1` [4 methoxychalcone], the “Lowest dose with toxicity” value [1] is reported as “none”, the “Lowest dose with toxicity” value [2] is reported as “none” and the IC50 [2] is reported as 3.6 µM. For the same compound, the “Lowest dose with toxicity” value ([3]; CHO ARE reporter assay) was 100 µM, the EC50 [3, 6] was 15 µM and the maximal fold induction ([3]; Cricetulus griseus, 24 h) was 2.13. The “Lowest dose with toxicity” value [4] was “none” and the IC50 [4] was 3.55 µM.
With `C=CC(C1=CC(=O)C(OC)=CC1=O)c1ccccc1` (centres unmarked) [4-Methoxydalbergione] the “Lowest dose with toxicity” value [1] was “none”, the “Maximal % reduction in Oxidative stress” value [1] was −44% and the “Lowest dose with toxicity” value [2] was “none”. For the same compound, the “Maximal % reduction in Oxidative stress” value [2] was 43%, the “Average fold GFP induction” value ([3]; CHO 4×ARE-TK-GFP, 24 h) was 2.11 fold and the “Lowest dose with toxicity” value ([3]; CHO ARE reporter assay) was 100 µM. The EC50 [3, 5] was 11 µM, the “Lowest dose with toxicity” value [4] was “none” and the IC50 [4] was 2.5 µM. For the same compound, the “Maximal % reduction in Oxidative stress” value [4] was 14%.
With `CCc1cccc(CC)c1N(COC)C(=O)CCl` [Alachlor] the “Lowest dose with toxicity” value [4] was “none”.
For `COc1cc(O)cc(OC)c1OC` [Antiarol], the “Lowest dose with toxicity” value [1] was 10 µM, the “Lowest dose with toxicity” value [2] was “none” and the “Lowest dose with toxicity” value ([3]; Chinese hamster, 24 h) was 100 µM. For the same compound, the maximal fold induction ([3]; Cricetulus griseus, 24 h) was 1.64 and the “Lowest dose with toxicity” value [4] was 10 µM.
For `CN1CCc2cccc3c2[C@H]1Cc1ccc(O)c(O)c1-3` [Apomorphine hydrochloride, reference compound], the “Lowest dose with toxicity” value [1] was 10 µM, the “Lowest dose with toxicity” value [2] was “none” and the “Lowest dose with toxicity” value ([3]; Chinese hamster, 24 h) was 100 µM. The maximal fold induction ([3]; Cricetulus griseus, 24 h) was 1.9 and the “Lowest dose with toxicity” value [4] was “none”.
`S=C=NCc1ccccc1` [Benzyl Isothiocyanate] was tested, and the “Lowest dose with toxicity” value [1] was “none”, the “Lowest dose with toxicity” value [2] was “none” and the “Lowest dose with toxicity” value ([3]; CHO ARE reporter assay) was “None”. For the same compound, the maximal fold induction ([3]; Cricetulus griseus, 24 h) was 1.81 and the “Lowest dose with toxicity” value [4] was “none”.
For `ClC1=C(Cl)C2(Cl)C3C(Cl)C(Cl)CC3C1(Cl)C2(Cl)Cl` (centres unmarked) [Chlordane], the “Lowest dose with toxicity” value [1] was 3 µM, the “Lowest dose with toxicity” value [2] was “none” and the “Lowest dose with toxicity” value ([3]; CHO ARE reporter assay) was 100 µM. For the same compound, the EC50 [3, 6] was 9.18 µM, the maximal fold induction ([3]; Cricetulus griseus, 24 h) was 1.56 and the “Lowest dose with toxicity” value [4] was “none”. For the same compound, the IC50 [4] was 3.57 µM.
For `CC1=C2C(=CO[C@H](C)[C@H]2C)C(O)=C(C(=O)O)C1=O` [Citrinin], the “Lowest dose with toxicity” value [1] was “none”, the “Lowest dose with toxicity” value [2] was “none” and the IC50 [2] was 0.338 µM. The “Lowest dose with toxicity” value ([3]; CHO ARE reporter assay) was 30 µM, the EC50 [3, 6] was 4.1 µM and the maximal fold induction ([3]; Cricetulus griseus, 24 h) was 3.26. For the same compound, the “Lowest dose with toxicity” value [4] was “none” and the IC50 [4] was 20 µM.
With `C=CC(C1=CC(=O)C=CC1=O)c1ccccc1` (centres unmarked) [Dalbergione] the “Lowest dose with toxicity” value [1] was “none”, the “Lowest dose with toxicity” value [2] was “none” and the “Lowest dose with toxicity” value ([3]; Chinese hamster, 24 h) was 30 µM. For the same compound, the maximal fold induction ([3]; Cricetulus griseus, 24 h) was 2.09 and the “Lowest dose with toxicity” value [4] was “none”.
With `CC1(C)C(=O)C=C[C@]2(C)[C@H]3CC[C@@]4(C)[C@H](c5ccoc5)OC(=O)[C@H]5O[C@]54[C@]3(C)[C@H](O)C[C@@H]12` [Deacetylgedunin] the “Lowest dose with toxicity” value [1] was “none”, the “Lowest dose with toxicity” value [2] was 10 µM and the IC50 [2] was 2.37 µM. For the same compound, the “Lowest dose with toxicity” value ([3]; CHO ARE reporter assay) was 30 µM, the EC50 [3, 6] was 3.5 µM and the maximal fold induction ([3]; Cricetulus griseus, 24 h) was 3.05. For the same compound, the “Lowest dose with toxicity” value [4] was “none” and the IC50 [4] was 5.36 µM.
In the case of `CC1(C)C2CC(=O)O[C@@]3(C)C4=CC(=O)O[C@@H](c5ccoc5)[C@]4(C)CCC3[C@@]2(C)C=C[C@H]1O` (some centres unmarked) [Deoxyandirobin lactone], the “Lowest dose with toxicity” value [1] is reported as “none”, the “Lowest dose with toxicity” value [2] is reported as “none” and the “Lowest dose with toxicity” value ([3]; Chinese hamster, 24 h) is reported as 100 µM. The maximal fold induction ([3]; Cricetulus griseus, 24 h) was 3.03 and the “Lowest dose with toxicity” value [4] was “none”.
With `C=C(CC)C(=O)c1ccc(OCC(=O)O)c(Cl)c1Cl` [Ethacrynic acid, reference compound] the “Lowest dose with toxicity” value [1] was 10 µM, the “Lowest dose with toxicity” value ([3]; Chinese hamster, 24 h) was 100 µM and the IC50 [4] was 3.01 µM.
`CC(=O)O[C@@H]1CC2C(C)(C)C=CC(=O)[C@]2(C)C2CC[C@@]3(C)[C@H](c4ccoc4)OC(=O)C4OC43[C@@]21C` (some centres unmarked) [Isogedunin] was tested, and the “Lowest dose with toxicity” value [1] was 1 µM, the “Maximal % reduction in Oxidative stress” value [1] was 0% and the “Lowest dose with toxicity” value [2] was “none”. The “Maximal % reduction in Oxidative stress” value [2] was 10%, the “Average fold GFP induction” value ([3]; CHO 4×ARE-TK-GFP, 24 h) was 3.11 fold and the “Lowest dose with toxicity” value ([3]; CHO ARE reporter assay) was “None”. For the same compound, the EC50 [3, 5] was 550 µM.
In the case of `CC(C)(C)c1cc(O)ccc1O` [tBHQ, tert-Butyl Hydroquinone, reference compound], the “toxicity at concentrations higher than peak expression” value [3] is reported as “signs of toxicity”, the “fluorescence in the control TK-GFP cell line” value ([3]; control TK-GFP CHO cell line) is reported as “No increase in fluorescence” and the “concentration of peak ARE activation (GFP expression)” value ([3]; narrow window, 24 h, serum free medium) is reported as 10 µM.
